Reference: article PMC8456950, “Structure‐Guided Design of G‐Protein‐Coupled Receptor Polypharmacology” (Angewandte Chemie (International Ed. in English), 2021)

System: unilaterally 6-OHDA lesioned rats
Experiment: Rotation test in unilaterally 6-OHDA lesioned rats (model of Parkinsonism)
Type: in vivo
Conditions: apomorphine 1 mg/kg IP, 6-OHDA lesioned rats
Experimental: Evaluation of compound 30 in rodent model of Parkinsonism. Male Sprague Dawley rats (150-200 g) were housed in air-conditioned rooms (12h dark/light cycle) at 20°C and a humidity of 53%. Experiments were performed in agreement with the European Communities Council Directive of 24 November 1986 (86/609/EEC) on the ethical use of animals and were approved by the local ethical committee (Stockholm North Ethical Committee, N105/16). Rats were anesthetized with ketamine (100 mg/kg, IP; Intervet)/xylazine (5 mg/kg, IP; Bayer, Kiel, Germany), pretreated with desipramine (25 mg/kg, IP; Sigma, St Louis, MO, USA)/pargyline (5 mg/kg, IP; Sigma), placed in a stereotaxi c instrument and injected with 6-OHDA (2.5 µl of a 5mg/ml solution; Sigma) into the median forebrain bundle (MFB) of the right hemisphere (AP -2.8 mm, ML -2.0 mm and V -9.0 mm). Two weeks after the unilateral 6-OHDA lesion, rats were injected with apomorphine (1 mg/kg, IP; Sigma) and their contralateral rotations were measured to determine the degree of nigrostriatal denervation. Four weeks after surgery, rats that were divided into two group according to the number of apomorphine-induced rotations. The rats were treated either with DMSO(17%)/saline (n=6) or compound 30 (n=7, 24 mg/kg, IP) dissolved in DMSO(17%)/saline. The number of rotations was calculated automatically with Noldus EthoVision XT11. 5 Software for 30 min following the drug administration. The two […]
groups were then compared by using a Mann-Whitney test. A second set of independent experiments using a new set of rats were carried out using the same protocol to assess the involvement of the D2R in the observed effect. In this case, rats were divided into four groups according to the number of apomorphine-induced rotations. The rats were treated with either DMSO(17%)/saline (n=6), raclopride (n=7, 2mg/kg, IP) dissolved in DMSO(17%)/saline, compound 30 (n=7, 24 mg/kg, IP) dissolved in DMSO(17%)/saline or the combination of raclopride (30 min pretreatment) and compound 30 (n=7). The rotation test was then performed for 30 min. […]

CN1CCc2cccc3c2[C@H]1Cc1ccc(O)c(O)c1-3 [apomorphine, reference compound] was tested, and the “rotational behaviour induced by control D2R agonist” value was “contralateral rotational behaviour”.
